Our source for the EC50 values is patent publication US20230075856A1, “CYCLIC SULFAMIDE COMPOUNDS FOR TREATMENT OF HBV” (Assembly Biosciences, Inc., priority 2018, published 2023).

pEC50: −log10 of the molar value.

One assay concerns HBV viral load production from HepAD38 cells. Kind of assay: Viral production from HepAD38 cells: viral load in supernatant by qPCR of the HBV core sequence. Particulars: 5 days incubation, qPCR of supernatant HBV DNA vs DMSO control, read-out: viral load lowering EC50 (Activity). Format: cell-based. A digest of the protocol:
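Viral load was measured by qPCR of the HBV core region in supernatant, quantified against DNA standards and compared with DMSO wells. Cells (50,000/well, tetracycline withdrawn, 2% FBS) received compound from 10 μM final for 5 days; EC50 from four-parameter nonlinear regression.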
Take `CN1C(C(=O)Nc2ccc(F)c(Cl)c2)CC(C(=O)NC2CCN(c3ccnc(Br)c3)CC2)NS1(=O)=O` (single isomer, unassigned) [1036-ISOMER-B, N5-[1-(2-bromo-4-pyridyl)-4-piperidyl]-N3-(3-chloro-4-fluoro-phenyl)-2-methyl-1,1-dioxo-1,2,6-thiadiazinane-3,5-dicarboxamide]: the pEC50 is 5.00 to 7.00. Same read-out and setting: the figure for `CN1C(C(=O)Nc2ccc(F)c(Cl)c2)CC(C(=O)NC2CCN(c3ncccn3)CC2)NS1(=O)=O` (single isomer, unassigned) [Compound 855-ISOMER-B, N3-(3-chloro-4-fluoro-phenyl)-2-methyl-1,1-dioxo-N5-(1-pyrimidin-2-yl-4-piperidyl)-1,2,6-thiadiazinane-3,5-dicarboxamide] is 5.00 to 7.00. Still for that read-out and setting: the figure for `CN1C(C(=O)Nc2ccc(F)c(Cl)c2)CC(C(=O)NCc2cccc(Cl)c2)NS1(=O)=O` (single isomer, unassigned) [Compound 730-ISOMER-B, N3-(3-chloro-4-fluorophenyl)-N5-[(3-chlorophenyl)methyl]-2-methyl-1,1-dioxo-1,2,6-thiadiazinane-3,5-dicarboxamide] is 5.00 to 7.00; for `CN1C(C(=O)Nc2ccc(F)c(Cl)c2)CC(C(=O)NCc2cnc(-c3ccccc3)s2)NS1(=O)=O` (single isomer, unassigned) [Compound 691-ISOMER-B, N3-(3-chloro-4-fluoro-phenyl)-2-methyl-1,1-dioxo-N5-[(2-phenylthiazol-5-yl)methyl]-1,2,6-thiadiazinane-3,5-dicarboxamide] it is over 7.30; for `CN1C(C(=O)Nc2ccc(F)c(Cl)c2)CC(C(=O)NCc2nn(-c3ccccc3F)c3ccccc23)NS1(=O)=O` (single isomer, unassigned) [1086-ISOMER-B, N3-(3-chloro-4-fluoro-phenyl)-N5-[[1-(2-fluorophenyl)indazol-3-yl]methyl]-2-methyl-1,1-dioxo-1,2,6-thiadiazinane-3,5-dicarboxamide] it is 5.00 to 7.00. Still for that read-out and setting: with `CN1C(C(=O)Nc2ccc(F)c(Cl)c2)CC(C(=O)NCc2cnc(N)s2)NS1(=O)=O` (single isomer, unassigned) [1132-ISOMER-B, N5-[(2-aminothiazol-5-yl)methyl]-N3-(3-chloro-4-fluoro-phenyl)-2-methyl-1,1-dioxo-1,2,6-thiadiazinane-3,5-dicarboxamide] the figure was 5.00 to 7.00; with `CN1C(C(=O)Nc2ccc(F)c(Cl)c2)CC(C(=O)NC2CCN(c3cc(Cl)ccn3)CC2)NS1(=O)=O` (single isomer, unassigned) [Compound 974-ISOMER-B, N3-(3-chloro-4-fluoro-phenyl)-N5-[1-(4-chloro-2-pyridyl)-4-piperidyl]-2-methyl-1,1-dioxo-1,2,6-thiadiazinane-3,5-dicarboxamide], 7.00 to 7.30. As to `CCc1nc(CNC(=O)C2CC(C(=O)Nc3ccc(F)c(Cl)c3)N(C)S(=O)(=O)N2)cs1` (single isomer, unassigned) [Compound 742-ISOMER-B, N3-(3-chloro-4-fluoro-phenyl)-N5-[(2-ethylthiazol-4-yl)methyl]-2-methyl-1,1-dioxo-1,2,6-thiadiazinane-3,5-dicarboxamide], the pEC50 is over 7.30. On the same count and under the same terms, the figure for `COc1ccc2nc(CNC(=O)C3CC(C(=O)Nc4ccc(F)c(Cl)c4)N(C)S(=O)(=O)N3)sc2c1` (single isomer, unassigned) [1011-ISOMER-A, N3-(3-Chloro-4-fluoro-phenyl)-N5-[(6-methoxy-1,3-benzothiazol-2-yl)methyl]-2-methyl-1,1-dioxo-1,2,6-thiadiazinane-3,5-dicarboxamide] is 5.00 to 7.00.

Staying with this assay, now noted: Hepatitis B virus, HePAD38, 120 h, 5 days incubation, qPCR of supernatant HBV DNA vs DMSO control, read-out: viral load lowering EC50 (Activity).
For the compound `CN1C(C(=O)Nc2ccc(F)c(Cl)c2)CC(C(=O)NCc2cc(-c3ccc(F)cc3)nn2C)NS1(=O)=O` (single isomer, unassigned) [1143-ISOMER-A, N3-(3-chloro-4-fluoro-phenyl)-N5-[[5-(4-fluorophenyl)-2-methyl-pyrazol-3-yl]methyl]-2-methyl-1,1-dioxo-1,2,6-thiadiazinane-3,5-dicarboxamide], the pEC50 is 5.00 to 7.00.

On to `CN1C(C(=O)Nc2ccc(F)c(Cl)c2)CC(C(=O)NC(c2ccccc2)c2ccccc2)NS1(=O)=O` (single isomer, unassigned) [1014-ISOMER-A, N5-benzhydryl-N3-(3-Chloro-4-fluoro-phenyl)-2-methyl-1,1-dioxo-1,2,6-thiadiazinane-3,5-dicarboxamide], for which the pEC50 is over 7.30.

For `CN1C(C(=O)Nc2ccc(F)c(Cl)c2)CC(C(=O)Nc2cnn(C)c2)NS1(=O)=O` (centres unmarked) [Compound 478], the pEC50 is 5.00 to 7.00.

Turning to `CN1C(C(=O)N(Cc2cnc(-c3cscn3)s2)c2ccc(F)c(Cl)c2)CC(C(N)=O)NS1(=O)=O` (single isomer, unassigned) [Compound 929-ISOMER-A, N3-(3-chloro-4-fluoro-phenyl)-2-methyl-1,1-dioxo-N-[(2-thiazol-4-ylthiazol-5-yl)methyl]-1,2,6-thiadiazinane-3,5-dicarboxamide], the pEC50 is 5.00 to 7.00. Still for that read-out and setting: with `CCn1ccc(CNC(=O)C2CC(C(=O)Nc3ccc(F)c(Cl)c3)N(C)S(=O)(=O)N2)n1` (centres unmarked) [Compound 745] the figure was 7.00 to 7.30. The same measure, in the same setting: the figure for `CN1C(C(=O)Nc2ccc(F)c(Cl)c2)CC(C(=O)NCc2cnc(C3CCC(C)(C)C3)s2)NS1(=O)=O` (centres unmarked) [Compound 1159] is 5.00 to 7.00; for `CN1C(C(=O)Nc2ccc(F)c(Cl)c2)CC(C(=O)NC2CCN(c3ccnc(F)c3)CC2)NS1(=O)=O` (centres unmarked) [Compound 1040] it is over 7.30; for `Cc1nc(CNC(=O)C2CC(C(=O)Nc3ccc(F)c(Cl)c3)N(C)S(=O)(=O)N2)sc1-c1ccccc1F` (centres unmarked) [Compound 1085] it is over 7.30.

As to `CN1C(C(=O)Nc2ccc(F)c(Cl)c2)CC(C(=O)NC2CC3CCC2C3)NS1(=O)=O` (centres unmarked) [Compound 858], the pEC50 was 5.00 to 7.00. Same read-out and setting: with `CN1C(C(=O)Nc2ccc(F)c(Cl)c2)CC(C(=O)NCc2csc(-c3ccc(OCCN4CCCCC4)cc3)n2)NS1(=O)=O` (centres unmarked) [Compound 957] the figure was over 7.30. Still for that read-out and setting: the figure for `CN1C(C(=O)Nc2ccc(F)c(Cl)c2)CC(C(=O)N[C@H]2CCCc3ccccc32)NS1(=O)=O` (some centres unmarked) [Compound 731] is 5.00 to 7.00; for `CN1C(C(=O)Nc2ccc(F)c(Cl)c2)CC(C(=O)NCc2cnc(N)s2)NS1(=O)=O` (centres unmarked) [Compound 1132] it is 5.00 to 7.00. Still for that read-out and setting: the figure for `CN1C(C(=O)Nc2ccc(F)c(Cl)c2)CC(C(=O)NC2CCCc3nc(Br)sc32)NS1(=O)=O` (centres unmarked) [Compound 978] is over 7.30; for `CCN1CCC(Oc2ccc(-c3ncc(CNC(=O)C4CC(C(=O)Nc5ccc(F)c(Cl)c5)N(C)S(=O)(=O)N4)s3)cc2)CC1` (single isomer, unassigned) [Compound 921-ISOMER-A, N3-(3-chloro-4-fluoro-phenyl)-N5-[[2-[4-[(1-ethyl-4-piperidyl)oxy]phenyl]thiazol-5-yl]methyl]-2-methyl-1,1-dioxo-1,2,6-thiadiazinane-3,5-dicarboxamide] it is over 7.30; for `CC(NC(=O)C1CC(C(=O)Nc2ccc(F)c(Cl)c2)N(C)S(=O)(=O)N1)c1cnc(-c2ccccc2Cl)s1` (centres unmarked) [Compound 1019] it is over 7.30.

On to `CN1C(C(=O)Nc2ccc(F)c(Cl)c2)C[C@@H](C(=O)N[C@H](c2ccccc2)c2cnc(-c3ccccc3)s2)NS1(=O)=O` (single isomer, unassigned) [1067-ISOMER-C], for which the pEC50 was over 7.30. The same measure, in the same setting: with `CN1C(C(=O)Nc2ccc(F)c(Cl)c2)CC(C(=O)NCc2ccccc2N2CCCCC2)NS1(=O)=O` (centres unmarked) [Compound 906] the figure was 5.00 to 7.00; with `CN1C(C(=O)Nc2ccc(F)c(Cl)c2)CC(C(=O)NCc2nc(C(F)(F)F)cs2)NS1(=O)=O` (centres unmarked) [Compound 1202], 5.00 to 7.00; with `CN1C(C(=O)Nc2ccc(F)c(Cl)c2)CC(C(=O)NCc2cnc(-c3ccc(F)cc3)s2)NS1(=O)=O` (centres unmarked) [Compound 916], over 7.30. Same read-out and setting: with `CN1C(C(=O)Nc2ccc(F)c(Cl)c2)CC(C(=O)NCc2cnc(Cl)s2)NS1(=O)=O` (centres unmarked) [Compound 1199] the figure was over 7.30; with `C[C@H](NC(=O)C1CC(C(=O)Nc2ccc(F)c(Cl)c2)N(C)S(=O)(=O)N1)c1ccccc1` (some centres unmarked) [Compound 755], 5.00 to 7.00. With `CN1C(C(=O)Nc2ccc(F)c(Cl)c2)CC(C(=O)NC2CCN(c3ccccn3)CC2)NS1(=O)=O` (centres unmarked) [Compound 769], the pEC50 is over 7.30. The same measure, in the same setting: with `CN1C(C(=O)Nc2ccc(F)c(Cl)c2)CC(C(=O)NC2CCN(C(=O)OC(C)(C)C)CC2)NS1(=O)=O` (single isomer, unassigned) [Compound 767-ISOMER-A, tert-butyl 4-[[5-[(3-chloro-4-fluoro-phenyl)carbamoyl]-6-methyl-1,1-dioxo-1,2,6-thiadiazinane-3-carbonyl]amino]piperidine-1-carboxylate] the figure was over 7.30; with `Cc1cn(-c2ccccc2)nc1CNC(=O)C1CC(C(=O)Nc2ccc(F)c(C#N)c2)N(C)S(=O)(=O)N1` (centres unmarked) [Compound 1134], over 7.30; with `Cc1nc(-c2ccc(F)cc2)sc1CNC(=O)C1CC(C(=O)Nc2ccc(F)c(Cl)c2)N(C)S(=O)(=O)N1` (centres unmarked) [Compound 1056], over 7.30. In the case of `Cc1cccc(CNC(=O)C2CC(C(=O)Nc3ccc(F)c(Cl)c3)N(C)S(=O)(=O)N2)n1` (centres unmarked) [Compound 716], the pEC50 was over 7.30.

Turning to `CN1C(C(=O)Nc2ccc(F)c(Cl)c2)CC(C(=O)Nc2cn(C)cn2)NS1(=O)=O` (centres unmarked) [Compound 494], the pEC50 is 7.00 to 7.30. Still for that read-out and setting: the figure for `Cc1cc(CNC(=O)C2CC(C(=O)Nc3ccc(F)c(C#N)c3)N(C)S(=O)(=O)N2)n(C)n1` (centres unmarked) [Compound 773] is 5.00 to 7.00; for `CN1C(C(=O)Nc2ccc(F)c(Cl)c2)CC(C(=O)NCc2nc(C(F)(F)F)cs2)NS1(=O)=O` (single isomer, unassigned) [1202-ISOMER-A, N3-(3-chloro-4-fluoro-phenyl)-2-methyl-1,1-dioxo-N5-[[4-(trifluoromethyl)thiazol-2-yl]methyl]-1,2,6-thiadiazinane-3,5-dicarboxamide] it is 5.00 to 7.00.
